For 20 compounds, IC50 and melting point results are on record in US7879853B2, “4,6-disubstituted pyrimidines and their use as protein kinase inhibitors” (Bayer Schering Pharma AG, priority 2004, dated 2011).

The target in data set [1] is T1, GST-ΔPH-Akt1 (Homo sapiens, UniProt P31749).
T1 construct: named GST-deltaPH-Akt1; 107480aa; cloned in the pAcG1 vector; made in house; host or cells: SF9 insect cells (pAcG1 vector), co-expressed with PDK1
Kind of data set: Biochemical ΔPH Akt1 assay (flashplate, 33P-ATP, histone 2B). To be noted: GST-ΔPH-Akt1, histone 2B substrate, 100 nM ATP, 80 minutes at 30° C.; read-out: Akt inhibition: IC50 (inhibition of deltaPHAkt1). An excerpt:
For the biochemical assay ΔPHAkt1 was used devoid of its PH domain as a GST fusion protein (named GST-deltaPH-Akt1; 107480aa; cloned in the pAcG1 vector (BD Biosciences Pharmingen)), co-expressed with PDK1 in SF9 insect cells. The protein was purified using glutathion-affinity chromatography by standard protocols.
In order to study the inhibition of Akt according to the invention, a flashplate-based assay has been developed.
The Akt1 assay is a biochemical assay using Akt1 devoid of its PH domain and co-expressed with PDK1 in insect cells. The GST-ΔPH-Akt1 assay is run in 96 well plates by incubating 100 ng/well GST-ΔPH-Akt1, 100 ng/well histone 2B (Roche, #223514) as substrate, 10 μl of compound of invention (test compounds were dissolved as 10 mM solutions in dimethylsulfoxide (DMSO) and subsequently diluted) and 100 nM ATP (including ^33P-ATP) in 100 μl of reaction buffer ([…], pH7.5; 3 mM MgCl2; 3 mM MnCl2; 3 μM Na-Orthovanadat; 1 mM DTT; 1 μg/ml PEG8000) for 80 minutes at 30° C. The reactions are terminated by adding 100 μl stopping buffer (2% H3PO4 for 5 minutes) and are washed 3 times by using washing buffer (0.9% NaCl). Relying on the incorporation of ^33P into the protein substrate histone 2B, the detection is based on the adhesion of the phosphorylated protein to the surface of scintillator-coated flash plates (NEN, USA; #SMP-200). This phosphorylation is measured by counting the plate for 60 sec. using a plate reader (Wallac Microbeta; Perkin Elmer, USA). The analysis of the data is performed using a biostatistical program (GraphPad Prism, USA).

Data set [2] deals with MCF7 cells. The data set is described as follows: Cellular proliferation/cytotoxicity assay (Alamar Blue), MCF7. It counts as cell-based. To be noted: Homo sapiens; MCF7, 48 hours, Alamar Blue (Resazurin); read-out: Anti-proliferative/cytotoxic activity: IC50 MCF7. How it is done: (§1) The anti-proliferative activity of the compounds as described herein, is evaluated using MCF7 and MDA-MB-468 (ATCC HTB-22 and HTB-132) cell lines and the Alamar Blue (Resazurin) cell viability assay (O'Brien et al. Eur J Biochem 267, 5421-5426, 2000). Resazurin is reduced to the fluorescent rescrufin by cellular dehydrogenase activity, correlating with viable, proliferating cells. Test compounds are dissolved as 10 mM solutions in DMSO and subsequently diluted. MCF7 or […] cells were seeded into 96 well flat bottom plates at a density of 10000 cells/well (MCF7) or 5000 cells/well (MDA-MB-468) in a volume of 200 μl/well. 24 hours after seeding, 1 μl each of the compound dilutions are added into each well of the 96 well plates. Each compound dilution is tested as at least as duplicates. Wells containing untreated control cells were filled with 200 μl DMEM containing 0.5% v:v DMSO. The cells are then incubated with the substances for 48 hours at 37° C. in a humidified atmosphere containing 5% carbon dioxide. To determine cell viability, 20 μl of a Resazurin solution (Sigma; 90 mg/l) are added. After 4 hours incubation at 37° C. the fluorescence is measured at an extinction of 544 nm and an emission of 590 nm (Wallac Victor2; Perkin Elmer, USA). For the calculation of the cell viability the emission value from untreated cells is set as 100% viability and the emission rates of treated cells are set in relation to the values of untreated cells. Viabilities are expressed as % values. The corresponding IC50 values of the compounds for cytotoxic activity are determined from the concentration-effect curves by means of non-linear regression. The analysis of the data is performed using a biostatistical program (GraphPad Prism, USA).

For data set [3], the system named is MDA-MB-468 cells. The data set is described as follows: Cellular proliferation/cytotoxicity assay (Alamar Blue), MDA-MB-468. It counts as cell-based. To be noted: Homo sapiens; MDA-MB-468, 48 hours, Alamar Blue (Resazurin); read-out: Anti-proliferative/cytotoxic activity: IC50 MDA468. How it is done:
as §1
A general note: Resazurin is reduced to fluorescent resorufin, in cell work by metabolically active cells.

As a reminder, the melting point is the temperature, or range, at which the solid turns liquid.

T1 sequence (P31749 107-480 limits assumed, stated change not applied): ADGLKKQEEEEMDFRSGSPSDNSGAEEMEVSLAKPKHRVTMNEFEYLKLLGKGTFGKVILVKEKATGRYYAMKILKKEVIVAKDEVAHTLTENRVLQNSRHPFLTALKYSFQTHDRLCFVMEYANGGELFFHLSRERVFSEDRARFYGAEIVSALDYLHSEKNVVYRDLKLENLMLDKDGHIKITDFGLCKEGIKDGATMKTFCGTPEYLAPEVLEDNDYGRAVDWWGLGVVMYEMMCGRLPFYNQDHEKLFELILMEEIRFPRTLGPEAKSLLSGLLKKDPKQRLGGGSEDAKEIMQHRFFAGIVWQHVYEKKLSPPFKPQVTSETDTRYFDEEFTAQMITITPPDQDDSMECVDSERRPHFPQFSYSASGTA

The compound `O=C(Nc1ccc(Nc2cc(-c3cccc4c3oc3ccccc34)ncn2)cc1)c1cccc(N2CCCC2)c1` [Compound 6, N-[4-(6-Dibenzofuran-4-yl-pyrimidin-4-ylamino)-phenyl]-3-pyrrolidin-1-ylbenzamide] showed a melting point of 250 to 255 °C. In data set [1], the IC50 is at most 5 µM.

For the compound `O=C(Nc1ccc(Nc2cc(-c3cccc4c3oc3ccccc34)ncn2)cc1)c1ccc(Cl)c(Cl)c1` [Compound 9, 3,4-Dichloro-N-[4-(6-dibenzofuran-4-yl-pyrimidin-4-ylamino)-phenyl]-benzamide], the melting point lay in the range of 317 to 321 °C. Besides, in data set [1], the IC50 was at most 5 µM.

As for `O=C(Nc1ccc(Nc2cc(-c3cccc4c3oc3ccccc34)ncn2)cc1)c1ccncc1` [Compound 11, N-[4-(6-Dibenzofuran-4-yl-pyrimidin-4-ylamino)-phenyl]-isonicotinamide], the melting point was 283 to 295 °C. Further, the IC50 in data set [1] was at most 5 µM.

`CN(C)Cc1ccc(C(=O)Nc2ccc(Nc3cc(-c4cccc5c4oc4ccccc45)ncn3)cc2)cc1` [Compound 12, N-[4-(6-Dibenzofuran-4-yl-pyrimidin-4-ylamino)-phenyl]-4-dimethylaminomethyl-benzamide] came in with a melting point of 299 °C. Also, the IC50 in data set [1] was at most 5 µM.

With `CN(C)c1ccc(C(=O)Nc2cccc(Nc3cc(-c4cccc5c4oc4ccccc45)ncn3)c2)cc1` [Compound 42, N-[3-(6-Dibenzofuran-4-yl-pyrimidin-4-ylamino)-phenyl]-4-dimethylamino-benzamide], the melting point was over 250 °C. The IC50 in data set [1] was at most 5 µM.

Take `N=C(N)c1cccc(C(=O)Nc2ccc(Nc3cc(-c4cccc5c4oc4ccccc45)ncn3)cc2)c1` [Compound 45, 3-Carbamimidoyl-N-[4-(6-dibenzofuran-4-yl-pyrimidin-4-ylamino)-phenyl]-benzamide]: the melting point lay in the range of 300 to 306 °C. Further, the IC50 in data set [2] was at most 16.6 µM. For the same compound, in data set [3], the IC50 is at most 6.05 µM.

`N#Cc1ccc(C(=O)Nc2ccc(Nc3cc(-c4cccc5c4oc4ccccc45)ncn3)cc2)cc1` [Compound 46, 4-Cyano-N-[4-(6-dibenzofuran 4-yl-pyrimidin-4-ylamino)-phenyl]-benzamide]: in data set [1], the IC50 is at most 5 µM.

On to `N=C(N)c1ccc(C(=O)Nc2ccc(Nc3cc(-c4cccc5c4oc4ccccc45)ncn3)cc2)cc1` [Compound 47, 4-Carbamimidoyl-N-[4-(6-dibenzofuran-4-yl-pyrimidin-4-ylamino)-phenyl]-benzamide], for which the IC50 is at most 16.6 µM in data set [2] and at most 6.05 µM in data set [3].

Regarding `Nc1cccc(C(=O)Nc2ccc(Nc3cc(-c4cccc5c4oc4ccccc45)ncn3)cc2)c1.O=C(O)C(F)(F)F` [Compound 51, 3-Amino-N-[4-(6-Dibenzofuran-4-yl-pyrimidin-4-ylamino)-phenyl]-benzamide trifluoroacetate], the melting point was in the range of 140 to 147 °C. Further, the IC50 in data set [1] is at most 5 µM.

Consider `O=C(Nc1ccc(Nc2cc(-c3cccc4c3oc3ccccc34)ncn2)cc1)c1ccc(C2CCCNC2)cc1.O=C(O)C(F)(F)F` (stereo not shown) [Compound 52, N-[4-(6-Dibenzofuran-4-yl-pyrimidin-4-ylamino)-phenyl]-4-piperidin-3-yl-benzamide trifluoroacetate], for which the melting point lay in the range of 140 to 147 °C. Further, the IC50 in data set [2] is at most 16.6 µM. The IC50 in data set [3] was at most 6.05 µM.

`NCc1cccc(C(=O)Nc2ccc(Nc3cc(-c4cccc5c4oc4ccccc45)ncn3)cc2)c1.O=C(O)C(F)(F)F` [Compound 54, 3-Aminomethyl-N-[4-(6-dibenzofuran-4-yl-pyrimidin-4-ylamino)-phenyl]-benzamide trifluoroacetate] came in with a melting point of 238 to 240 °C. The IC50 in data set [2] is at most 16.6 µM. Also, the IC50 in data set [3] is at most 6.05 µM.

In the case of `Nc1ccccc1C(=O)Nc1cccc(Nc2cc(-c3cccc4c3oc3ccccc34)ncn2)c1.O=C(O)C(F)(F)F` [Compound 59, 2-Amino-N-[3-(6-dibenzofuran-4-yl-pyrimidin-4-ylamino)-phenyl]-benzamide trifluoroacetate], the melting point was in the range of 140 to 150 °C. Further, the IC50 in data set [1] is at most 5 µM.

Compound `NCc1cccc(C(=O)Nc2cccc(Nc3cc(-c4cccc5c4oc4ccccc45)ncn3)c2)c1.O=C(O)C(F)(F)F` [Compound 61, 3-Aminomethyl-N-[3-(6-dibenzofuran-4-yl-pyrimidin-4-ylamino)-phenyl]-benzamide trifluoroacetate] displayed a melting point of 150 to 156 °C. Moreover, the IC50 in data set [1] was at most 5 µM.

For `Nc1ccc(C(=O)Nc2cccc(Nc3cc(-c4cccc5c4oc4ccccc45)ncn3)c2)cc1.O=C(O)C(F)(F)F` [Compound 62, 4-Amino-N-[3-(6-dibenzofuran-4-yl-pyrimidin-4-ylamino)-phenyl]-benzamide trifluoroacetate], the melting point lay within 185 to 188 °C. In addition, the IC50 in data set [1] was at most 5 µM.

As to `CNCc1ccc(C(=O)Nc2ccc(Nc3cc(-c4cccc5c4oc4ccccc45)ncn3)cc2)cc1.O=C(O)C(F)(F)F` [Compound 63, N-[4-(6-Dibenzofuran-4-yl-pyrimidin-4-ylamino)-phenyl]-4-methylaminomethyl-benzamide trifluoroacetate], the melting point was 130 to 140 °C. Besides, the IC50 in data set [2] is at most 16.6 µM. The IC50 in data set [3] is at most 6.05 µM.

The compound `Cc1ccc(NC(=O)c2ccc(CN)cc2)cc1Nc1cc(-c2cccc3c2oc2ccccc23)ncn1.O=C(O)C(F)(F)F` [Compound 67, 4-Aminomethyl-N-[3-(6-dibenzofuran-4-yl-pyrimidin-4-ylamino)-4-methyl-phenyl]-benzamide trifluoroacetate] displayed a melting point of 180 to 185 °C. Besides, the IC50 in data set [1] was at most 5 µM.

`COCCNc1ccc(C(=O)Nc2ccc(Nc3cc(-c4cccc5c4oc4ccccc45)ncn3)cc2)cc1.O=C(O)C(F)(F)F` [Compound 71, N-[4-(6-Dibenzofuran-4-yl-pyrimidin-4-ylamino)-phenyl]-4-(2-methoxyethylamino)benzamide trifluoroacetate] gave a melting point of over 250 °C. In addition, the IC50 in data set [1] is at most 5 µM.

Consider `NCc1ccc(C(=O)Nc2ccc(Nc3cc(-c4cccc5c4oc4ccccc45)ncn3)cc2)c(F)c1` [Compound 72, 4-Aminomethyl-N-[4-(6-dibenzofuran-4-yl-pyrimidin-4-ylamino)-phenyl]-2-fluorobenzamide], for which the melting point is > 200 °C (dec.). Also, in data set [1], the IC50 is at most 5 µM.

Turning to `NCc1cncc(C(=O)Nc2ccc(Nc3cc(-c4cccc5c4oc4ccccc45)ncn3)cc2)c1` [Compound 74, 5-Aminomethyl-N-[4-(6-dibenzofuran-4-yl-pyrimidin-4-ylamino)-phenyl]-nicotinamide], the melting point was 184 °C (dec.). Moreover, the IC50 in data set [1] is at most 5 µM.

The compound `NCc1ccc(C(=O)Nc2ccc(Nc3cc(-c4cccc5c4oc4ccccc45)ncn3)cc2)nc1.O=C(O)C(F)(F)F` [Compound 77, 5-Aminomethyl-pyridine-2-carboxylic acid [4-(6-dibenzofuran-4-yl-pyrimidin-4-ylamino)-phenyl]-amide trifluoroacetate] registered a melting point of 164 to 170 °C. For the same compound, the IC50 in data set [1] is at most 5 µM.
